Test results as given in patent US20210068400A1, “COMPOSITIONS CONTAINING COMBINATIONS OF NITROGEN-FIXING BACTERIA AND ADDITIONAL AGENTS AND THEIR USE IN FIXING NITROGEN IN PLANT SPECIES” (GRACE BREEDING NITROGEN FIXATION TECHNOLOGIES LTD., priority 2018, published 2021).
“And” between values parts separate entries of the source, which are not always exact repeats. Equal values may be shown once. Each block holds one compound with its values, some of them ahead of it.

Assays:
[1] = tested on: Tomato seedlings inoculated with bacterial and fungal cocktails; assay: Inoculation of tomato seedlings; format: in vivo; settings: 5 days following treatment; concentration 3; FIG. 31
Method: Tomato seedlings were inoculated with 10 cc of each test mixtures containing Rhizobium species and various combinations of activating phytochemicals. (including the bacterial and fungal cocktails described below) […].
The health of each plant was assessed 5 days following treatment, using a semi-quantitative inoculation index (0=healthy, 5=dead).
The composition and concentration of the various test mixtures, as well as the number of different activating agents used in combination are summarized in the following two tables (all concentrations are given as % v/v): […]

TNF-α production = assay: Inhibition of TNF-α production in activated RAW 264.7 macrophages (ELISA); format: cell-based; settings: Mus musculus, RAW264.7; RAW 264.7 macrophages activated with LPS and IFN-γ, 24 hours
Method: RAW 264.7 macrophages were grown in flat-bottomed flasks using a standard growth medium (DMEM supplemented with 5% FBS, antibiotics and glutamine. The cells were maintained in accordance with standard procedures well known in the art. After the cells reached confluence, they were removed from the flasks using mechanical means and then concentrated by centrifuging and resuspended in a small volume of fresh culture medium. The cell concentration was adjusted with growth medium in order that about 75,000 cells could be added to each well of a 96-well plate. A combination of 25 μg/mL LPS and 10 U/ml IFN-γ DMEM, was used for activation of the macrophages. The various test agents were added to the wells one hour prior to activation. The cells were then incubated for a further 24 hours, prior to assaying the inflammatory mediator production and cell viability. A sandwich ELISA was used to determine TNF-α concentration. The primary antibody was used at a concentration of 0.5 μg/mL in PBS. Serial dilutions of TNF-α standard from 0 to 1000 pg/mL in diluent (0.05% Tween-20, 0.1% BSA in PBS) were used as internal standard. TNF-α was detected with a biotinylated second antibody and an avidin peroxidase conjugate with TMB as detection reagent. The color development was monitored at 655 nm, taking readings after every 5 minutes. After 25 minutes, the reaction was stopped using 0.5 M sulphuric acid and the absorbance was measured at 450 nm.

[2] = tested on: Clavibacter michiganensis sp. Michiganensis (Cmm); assay: Survival of Cmm after co-incubation in test tubes, colony count; format: cell-based; settings: Example 12, contact time 3 days
Method: Various combinations of a 3% Rhizobium sp. preparation together with an emulsion containing 5 activating agents (E-91) or one of the components of said emulsion (naringin) and a culture of the plant pathogen Cmm (10^5-10^6 CFU/ml final concentration) were incubated in test tubes for up to 3 days (4 replicates per combination). At the end of the 3 day incubation period the contents of the test tubes containing all these components were plated on to growth medium and the numbers of colonies of Cmm and Rhizobium species for each test condition (CFU/ml) were measured.
The emulsion containing the 5 activating agents (Sclaerol, Naringin, Nootkatone, Stevia and CBD; referred to in the results table hereinbelow as 5% plant emulsion E-91) was prepared as described in Example 6, hereinabove.
This study was conducted in essentially the same manner as the study presented in Example 12. In the present study, however, the effect of the 5-component activating agent emulsion (5% plant emulsion E91) is compared with the following combinations of activating agents: […]

RAW 264.7 macrophages = assay: Cell viability, Alamar Blue assay; format: cell-based
Method: (§1) RAW 264.7 macrophages were grown in flat-bottomed flasks using a standard growth medium (DMEM supplemented with 5% FBS, antibiotics and glutamine. The cells were maintained in accordance with standard procedures well known in the art. After the cells reached confluence, they were removed from the flasks using mechanical means and then concentrated by centrifuging and resuspended in a small volume of fresh culture medium. The cell concentration was adjusted with growth medium in order that about 75,000 cells could be added to each well of a 96-well plate. A combination of 25 μg/mL LPS and 10 U/ml IFN-γ DMEM, was used for activation of the macrophages. The various test agents were added to the wells one hour prior to activation. The cells were then incubated for a further 24 hours, prior to assaying the inflammatory mediator production and cell viability.
The Alamar Blue assay of viability was performed by adding 100 μl of a 10% Alamar Blue solution to each well and incubating at 37° C. for 1-2 hr. Fluorescence was measured (excitation at 545 nm and emission at 595 nm) and expressed as a percentage of the values in untreated control cells.

NO production = assay: Inhibition of NO production in activated RAW 264.7 macrophages (Griess assay); format: cell-based; settings: Mus musculus, RAW264.7, 24 h, RAW 264.7 macrophages activated with LPS and IFN-γ
Method: as §1, with “viability. The production of NO by the macrophages subjected to the various treatments was assayed using the Griess reagent (equal volumes of 1% sulphanilamide and 0.1% […]-diamine in 5% HCl). 70 μl of supernatant from each test well was transferred to a fresh 96-well plate and mixed with 70 μL of Griess reagent and the violet color produced was measured at 540 nm.” for “viability.”

maize plants [3] = assay: Maize field trial 4, total leaf nitrogen content (Example 4); format: in vivo, maize (Zea mays); settings: maize leaves, 3 months after sowing
Method: Generally, the nitrogen content of the growing plant in the field study was measured using a spectrophotometric method based on the standard method “4500-NO3_I. Cadmium Reduction Flow Injection Method” published by the Standard Methods Organization (<https://www.standardmethods.org/doi/full/10.2105/SMWW.2882.089). This method is based on the conversion of nitrates in an aqueous plant material extract to nitrites by passing the extract through a copperized cadmium column. Subsequent processing steps convert the nitrites to a magenta-colored dye having an absorbance peak at 540 nm.
This trial was sown during the Israeli growing season of 2018 using the pioneer maize silage variety number W86. The field was washed from possible nitrogen using sprinkler irrigation. The combination treatments administered to the plants which are of relevance for the present study were: • PC. Positive Control—full commercial nitrogen. The plants were treated with 30 units of nitrogen per 1000 m^2 by means of applying to this area 60 kg urea containing 46% urea. • NC. Negative Control—no nitrogen. • 1. […]
The average total leaf nitrogen content was measured at one timepoint during growth of the maize plants, 3 months after sowing.

maize plants [4] = assay: Maize field trial 3, growth parameters (Example 3); format: in vivo, maize (Zea mays); settings: 3 months after sowing
Method: In some of the treatments (as explained hereinbelow), some or all of the active substances were added in the form of granules to the furrow in which the plants had been seeded. The granules were prepared by soaking 1 kg of Perlite granules (having a mean diameter greater than 2 mm) in the following solution: • 50 ml of the concentrated activating agent emulsion (as described above). • 930 ml water. • 10 ml Rhizobium leguminosarum biovar viceae (Cell-Tech™ granular; Monsanto Company) (Granule-R). or Bacillus subtilis (Granule-B) • 10 ml Calirus. • 1000 ml total
This trial was sown during the Israeli growing season of 2018 using the pioneer maize silage variety number W86. The field was washed from possible nitrogen using sprinklers irrigation. The combination treatments administered to the plants which are of relevance for the present study were: • A. Positive Control—full commercial nitrogen. The plants were treated with 30 units of nitrogen per 1000 m^2 by means of applying to this area 60 kg urea containing 46% urea. • B. Negative Control—no added nitrogen. • C. Rhizobium leguminosarum biovar viceae, 3% (containing 10^9 organisms) was added to the activating agent emulsion described in ‘general methods’ hereinabove, to which Calirus (1%) was also added. Perlite granules were soaked with this mixture as described hereinabove. The granules were added to the sowing trench at a density of 2 Kg granules per 1000m^2. • D. As for treatment C, but with the granule quantity adjusted to 1 Kg granules per 1000 m^2. • E. As for treatment C, but with the granule quantity adjusted to 4 Kg granules per 1000 m^2.
The following parameters were monitored at one timepoint during growth of the maize plants, 3 months after they were sown: • Plant stem caliber • Leaf width • Cob weight (taken from the main stems of 10 plants) • Total plant weight (10 plants) • Plant height
The statistical significance of the difference between the various treatment groups was determined using the Tukey-Kramer HSD test.

wheat (Galil variety) = assay: Wheat field trial 5 (Example 5); format: in vivo
Method: Two different agricultural sites in Israel were selected for field trials in which the effects of compositions of the present invention on wheat crops were investigated. The various compositions were administered to the growing wheat (Galil variety) as described in Examples 3 and 4, hereinabove. The treatments used in this study are as follows:
B. Negative control (no nitrogen source)
A. Granules prepared according to Example 3, applied at a density of 4 kg granules per 1000 m^2.
C. Granules prepared according to Example 3, applied at a density of 2 kg granules per 1000 m^2.
F. Positive control—full commercial nitrogen. The plants were treated with 30 units of nitrogen per 1000 m^2 by means of applying to this area 60kg urea containing 46% urea.
The following parameters were measured in the wheat, in order to assess the effect of the treatment compositions on plant growth: […]

[5] = at the IC50 for inhibition of NO production
[6] = at the IC50 for inhibition of TNF-α production

SMILES: C=C(C)[C@@H]1CCC(C)=C[C@H]1c1c(O)cc(CCCCC)cc1O [Cannabidiol (CBD; hemp oil), cannabidiol]
Protection of tomato plants (inoculation index 0=healthy, 5=dead) [1]: highly active even when present as the sole activating agent

SMILES: C[C@@H]1O[C@@H](O[C@H]2[C@H](Oc3cc(O)c4c(c3)O[C@H](c3ccc(O)cc3)CC4=O)O[C@H](CO)[C@@H](O)[C@@H]2O)[C@H](O)[C@H](O)[C@H]1O [Naringin]
IC50 (TNF-α production): 90 µg/mL
Cmm count, MEAN ([2]; mean of 4 replicates): 7.75 × 10^5 CFU/ml
Cmm count, individual replicates ([2]; replicates 1-4, listed as Cmm + 0.1% Naringin): 6.5 × 10^5 CFU/ml and 8.3 × 10^5 CFU/ml and 7.7 × 10^5 CFU/ml and 8.6 × 10^5 CFU/ml
Cell viability (% of cell survival) (RAW 264.7 macrophages; [5]): 90.10 ± 4.2%
Cell viability (% of cell survival) (RAW 264.7 macrophages; [6]): 91.50 ± 5.2%
IC50 (NO production): 40 µg/mL

SMILES: NC(N)=O [A. Positive control - full nitrogen, urea]
AVERAGE N2 CONTENT (total leaf nitrogen) (maize plants [3]): 3.16
Total plant weight (10 plants) (maize plants [4]; 10 plants): 11.81 kg
Mean cob weight (10 plants) (maize plants [4]; cobs from the main stems of 10 plants): 3.96 kg
Mean Plant stem caliber (maize plants [4]; maize): 37.2 mm
Mean leaf width (maize plants [4]; maize): 10.5 cm
Plant height (maize plants [4]; mean of 10 plants): 2.72 m
Average wheat grain yield (wheat (Galil variety); from each of 6 2 m plots): 1.11 kg
Flag leaf width (wheat (Galil variety); wheat): 2.0 cm
Main shoot diameter (wheat (Galil variety); wheat): 0.42 cm
No. of side shoots (wheat (Galil variety); wheat): 1.3
Average nitrogen content, flag leaves (wheat (Galil variety); wheat flag leaf): 2.94

IC50 (TNF-α production): 80 µg/mL
SMILES: C=C1C[C@@]23CC[C@H]4[C@@](C)(CCC[C@@]4(C)C(=O)O)[C@@H]2CC[C@]1(O)C3 [Steviol]

SMILES: C=C[C@](C)(O)CC[C@@H]1[C@@]2(C)CCCC(C)(C)[C@@H]2CC[C@@]1(C)O [Sclareol]
IC50 (TNF-α production): 80 µg/mL
Cell viability (% of cell survival) (RAW 264.7 macrophages; [5]): 96.20 ± 2.1%
Cell viability (% of cell survival) (RAW 264.7 macrophages; [6]): 95.30 ± 2.2%
IC50 (NO production): 40 µg/mL
